Experimental data reported in patent publication US12263226B1, “Neratinib-cyclodextrin composition and method for preparing same” (Hangzhou Jitai Pharmaceutical Technology Co., Ltd, priority 2024, dated 2025).
Read-outs that look alike come from different tables or passages of the source.

Columns and labels:
[1] = Description: Preparation of FaSSIF solution (fasted state simulated intestinal fluid, pH 6.5): 0.42 g of NaOH, 3.44 g of NaH2PO4, and 6.19 g of NaCl were added into a beaker before 900 mL of purified water was added. The pH was adjusted and the volume was brought to 1 L with purified water. 2.24 g of FaSSIF powder was added into the 1-L buffer.
Solubility measurement: 400 μL of the FaSSIF solution was added into a scintillation flask, and a small amount of the neratinib-cyclodextrin composition powder was gradually added at room temperature with magnetic stirring until a precipitate was observed. The addition amount of the powder was recorded. The solubility of neratinib maleate was calculated from the loading amount of the powder. Dissolution measurement of the neratinib maleate substance (API): 400 μL of the FaSSIF solution was added into a scintillation flask. An excessive amount of neratinib maleate substance was added.

[2] = cited from earlier work

| Compound | solubility of neratinib maleate ([1]; FaSSIF, excess substance, stirred at room temperature 48 h, supernatant by HPLC) [µg/mL] | solubility of neratinib maleate ([1]; neutral conditions (pH 6.5)) [µg/mL] | bioavailability ([2]; fasting conditions in humans) [%] | decrease of area under curve (AUC) without the high-fat meal ([2]; humans, approved tablet) [times] |
| --- | --- | --- | --- | --- |
| neratinib maleate | 7.4 | 7.4 |  |  |
| CCOc1cc2ncc(C#N)c(Nc3ccc(OCc4ccccn4)c(Cl)c3)c2cc1NC(=O)/C=C/CN(C)C [neratinib, (E)-N-[4-[3-chloro-4-(pyridin-2-ylmethoxy)anilino]-3-cyano-7-ethoxyquinolin-6-yl]-4-(dimethylamino) but-2-enamide] |  |  | < 17 | 2.2 |
